Experimental data reported in publication PMC7728754, “MRI-based molecular imaging of epicardium-derived stromal cells (EpiSC) by peptide-mediated active targeting” (Scientific Reports, 2020).
“Also recorded” adds a separate entry of the source. Blank lines part the entries; values can stand above or below the substance they belong to.

Legend:
[1] = system: cultured EpiSCs; experiment: Flow cytometry binding of FAM-labelled EPs to cultured EpiSCs; type: cell-based, rat; settings: 5 µg/ml FAM-labelled peptide, up to 120 min, 37 °C, n = 5
Procedure: EpiSCs were detached from the cell culture flask with PBS-EDTA (5 mM) and resuspended in DMEM at a concentration of 0.5 × 10^6 cells/ml. Cell suspensions were incubated with 5 µg/ml of EP1, EP2, EP3, EP7 and EP9 for up to 120 min at 37 °C. After 10, 20, 40, 80 and 120 min, samples were transferred into tubes containing ice-cold MACS buffer (PBS, 2% FCS, 1 mM EDTA) to stop the reaction. Cells were centrifuged for 5 min at 500 × g and 4 °C, washed twice and finally suspended in MACS buffer with DAPI (4′,6-Diamidino-2-phenylindole dihydrochloride; 1 µg/ml) to label dead cells. Flow cytometric analysis was performed on a BD FACS Canto II (BD Biosciences, Heidelberg, Germany).

[2] = system: cultured EpiSCs; experiment: Impact of storage on EP9/EP9PFC targeting efficacy; type: cell-based, rat; settings: stored in phosphate buffer at 4 °C for 24 h, then 30 min at 37 °C on cultured EpiSCs, flow cytometry, n = 3
Procedure: EP9 and ^EP9PFCs were stored in phosphate buffer at 4 °C for 6 h and 24 h. Subsequently EP9 and ^EP9PFCs were incubated on cultured EpiSCs for 30 min at 37 °C. Cells were washed twice with MACS buffer and then analyzed by flow cytometry.

[3] = system: primary human CD14+ monocytes; experiment: Flow cytometry binding of EP9 to primary human monocytes; type: cell-based; settings: 1.9 µg EP9 in 600 µl cell suspension, up to 45 min, 37 °C, n = 4 (Fig. S3)
Procedure: Blood was withdrawn from healthy human volunteers by venous puncture and 10 ml of whole blood were mixed with 10 ml of PBS and gently laid on top of Histopaque-1077 (Sigma-Aldrich Chemie GmbH). After density centrifugation, the PBMC layer was diluted 1:1 with PBS and a centrifugation step was performed. The cell pellet was subjected to erythrocyte lysis using hypotonic buffer for 10 min at 4 °C. After centrifugation, the cells were resuspended in 8.5 ml DMEM. The cell suspension (600 µl) was incubated with 1.9 µg of EP9 for 45 min, at 37 °C. After 5, 15 and 45 min, samples were transferred into ice cold MACS buffer to stop the reaction and centrifuged for 5 min at 500 × g. Cells were washed with MACS buffer, resuspended in CD14-PE/Cy7 (PE/Cy7 anti-human CD14, Clone 63D3, BioLegend, San Diego, USA) antibody solution and incubated for 30 min at 4 °C. Flow cytometric analysis was performed after two washing steps and suspension in MACS buffer with DAPI (1 µg/ml) using a BD FACS Canto II.

[4] = system: THP-1 monocytes; experiment: Surface plasmon resonance, THP-1 monocytes over immobilized EP9; type: binding, human; settings: SPR, CM5 chip, 30 µl/min, 25 °C, PBS, negative control cells
Procedure: (§1) To analyse the interaction kinetics between peptide EP9 and EpiSCs, we used a BIAcore X100 system equipped with a CM5 sensor chips (GE Healthcare GmbH, Solingen, Germany). EP9 peptide was immobilized to the surface of the CM5 chip (600 µg/ml; 30 µl/min) using a thiol coupling chemistry (GE Healthcare GmbH). Presence of a free SH group at the C-terminal of EP9 peptide enabled us to efficiently immobilize it through a thiol coupling procedure. Afterward, EpiSCs and THP-1 monocytes (ATCC: TIB-202; 10,000 cells/µl) were injected over the sensor chip to monitor the association between immobilized EP9 peptide and the cells. After injection of the cells, dissociation phase was monitored by introduction of buffer for a period of 300 s. In another experimental strategy, increasing numbers of EpiSCs (200, 400 and 800 × 10^3) were flushed over the immobilized peptide EP9 with a flow rate of 30 µl/min and dissociation was measured for an identical period of time. Finally, to block the EP9 binding sites, EpiSCs were pre-incubated for 30 min with 5 µg of EP9 before injection into the BIAcore system and subjected to the same procedure as described above. All SPR experiments were carried out at 25 °C in PBS.

[5] = system: EpiSCs; experiment: Surface plasmon resonance, EpiSCs over immobilized EP9; type: binding, rat; settings: SPR, 25 °C, PBS
Procedure: as §1

[6] = system: EpiSC and THP-1 cells; experiment: Cytotoxicity by DAPI flow cytometry; type: cell-based; settings: 200 µl of cells + 5 µl EP9PFCs or 1.9 µg EP9, up to 120 min, 37 °C, n = 3
Procedure: EpiSC and THP-1 cells were incubated with EP9 peptide or ^EP9PFCs (200 µl of cells + 5 µl ^EP9PFCs or 1.9 µg EP9) over a period of 120 min at 37 °C. Samples were withdrawn after 0 min, 15 min, 30 min, 60 min and 120 min and analyzed by flow cytometry. Cells were stained with DAPI (1 µg/ml) to label dead cells.

Binding to cultured EpiSCs [1]: strong binding
Substance: ATKTIAP [EP2]

Substance: KLMLPRP [EP9]
Cellular labelling of EpiSCs after storage [2]: severely reduced
Binding to primary monocytes [3]: not detectable
Association of THP-1 monocytes to immobilized peptide [4]: only minor association
Binding to cultured EpiSCs [1]: strong binding; also recorded: best binding properties
Association of EpiSCs to immobilized peptide ([5]; CM5 chip, thiol coupling, 30 µl/min): rapidly associated
Dissociation rate ([5]; EpiSCs over thiol-immobilized EP9, 30 µl/min): 0.005 s⁻¹
Acute cytotoxic effects [6]: did not find evidence for acute cytotoxic effects

Binding to cultured EpiSCs [1]: strong binding
Substance: QSHALMA [EP7]

Binding to cultured EpiSCs [1]: strong binding
Substance: SEPIVPL [EP1]

Binding to cultured EpiSCs [1]: strong binding
Substance: THVYRDE [EP3]
